Source: patent US20260176260A1, “DUAL RAF AND TUBULIN INHIBITORS AND METHODS OF USE THEREOF” (Deciphera Pharmaceuticals, LLC, priority 2023, published 2026)
Read-outs that look alike come from different tables or passages of the source.

Experiments:
HPAF-II cells = test: HPAF-II cell proliferation assay (resazurin); type: cell-based; details: Homo sapiens
Protocol: HPAF-II cells (catalog #CRL-1997) are obtained from the American Type Culture Collect (ATCC, Manassas, VA). Briefly, cells are grown in Minimum Essential Media supplemented with 10% characterized fetal bovine serum (Invitrogen, Carlsbad, CA) and 1% Penicillin/Streptomycin/L-Glutamine at 37° C., 5% CO2, and 95% humidity. Cells are expanded until reaching 70-95% confluency at which point they are sub-cultured or harvested for assay use. A serial dilution of test compound is dispensed into a 384-well black clear bottom plate in triplicate. 750 cells are added per well in 50 μL complete growth medium in the 384-well plate. Plates are incubated for 115 to 120 h at 37° C., 5% CO2, and 95% humidity. At the end of the incubation, 40 μL of a […] solution of resazurin (Sigma, St. Louis, MO) in PBS is added to each well of the plate and plates are incubated for an additional 18 to 24 h at 37° C., 5% CO2, and 95% humidity. Plates are read on a Synergy2 or equivalent reader (Biotek, Winooski, VT) using an excitation of 540 nm and an emission of 600 nm. Data is analyzed using Prism software (Graphpad, San Diego, CA) to calculate IC50 values.

[1] = tested on: tubulin polymerization in HCT-116 cells; test: Cellular tubulin polymerization assay (pellet/supernatant a-tubulin, HCT-116 cells); type: cell-based
Protocol: HCT-116 cells (catalog #CCL-247) are obtained from the American Type Culture Collect (ATCC, Manassas, VA). Briefly, cells are grown in McCoy's 5A supplemented with 10% characterized fetal bovine serum (Invitrogen, Carlsbad, CA) and 1% Penicillin/Streptomycin/L-Glutamine at 37° C., 5% CO2, and 95% humidity. Cells are expanded until reaching 70-95% confluency at which point they are sub-cultured or harvested for assay use. 450000 cells are added per well in 1500 μL complete growth medium in a tissue culture treated, 12-well plate. Plates are incubated for 18 to 24 h at 37° C., 5% CO2, and 95% humidity. At the end of the incubation, 2000 μL of base culture media is added to each well, followed by a serial dilution of compound. Plates are incubated for an additional 1 h at 37° C., 5% CO2, and 95% humidity. Lysates are generated by the addition of 100 μL Lysis and Microtubule Stabilization Buffer 1 (LMS01, Cytoskeleton Inc, Denver, CO) supplemented with GTP (BST06, Cytoskeleton Inc), ATP (BSA04, Cytoskeleton Inc), and Protease Inhibitor Cocktail Stock (PIC02, Cytoskeleton Inc). Cells are scraped off wells using a rubber cell scraper and collected in a clean 96-well plate. Lysates are centrifuged at 1000×g, 37° C. for 10 min and supernatant fraction is placed into an additional 96-well plate. The remaining pellet fraction is reconstituted in 100 μL LMS01 buffer and sonicated for 10 min. Pellet and Supernatant fractions are probed for a-tubulin via western blot analysis on the Jess System or equivalent (Bio-techne, Minneapolis, MN). Data is analyzed using Prism software (Graphpad, San Diego, CA) to calculate IC50 values.

MiaPaca-2 cells = test: MiaPaca-2 cell proliferation assay (resazurin); type: cell-based; details: Homo sapiens, MIA PaCa-2
Protocol: MiaPaca-2 cells (catalog #CRL-1420) are obtained from the American Type Culture Collect (ATTC, Manassas, VA). Briefly, cells were grown in DMVEM supplemented with […] fetal bovine serum (Invitrogen, Carlsbad, CA), 2.5% New Zealand sourced horse serum and 1% Penicillin/Streptomycin/L-Glutamine at 37° C., […], and […]. Cells are expanded until reaching […] at which point they are sub-cultured or harvested for assay use. For assays completed in 96-well plates, a serial dilution of test compound is dispensed into a 96-well black clear bottom plate in triplicate. Three thousand cells are added per well in 200 μL complete growth medium in the 96-well plate. Plates are incubated for 67 to 72 h at 37° C., 5% CO2, and 95% humidity. At the end of the incubation, 40 μL of a […] solution of resazurin (Sigma, St. Louis, MO) in PBS is added to each well of the plate and plates are incubated for an additional 5 to 6 h at 37° C., 5% CO2, and 95% humidity. For 384-well assays, a threefold, 8-point serial dilution of compound was spotted column wise into a 384 well black, clear bottom, tissue culture treated plate using the Beckman Coulter Echo 650. Likewise, a threefold, 8-point serial dilution of cobimetinib was spotted row wise into the 384 well black, clear bottom plate containing compound. DMSO concentration was constant across all wells at 0.4%. Seven hundred fifty cells are added per well in 50 μL complete growth medium in each 384-well plate. Plates are incubated for 67 to 72 h at 37° C., 5% CO2, and 95% humidity. At the end of the incubation, 10 μL of a 440 μM solution of resazurin (Sigma, St. Louis, MO) in PBS is added to each well of the plate and plates are incubated for an additional 4 to 6 h at 37° C., 5% CO2, and 95% humidity. Plates are read on a Synergy2 or equivalent reader (Biotek, Winooski VT) using an excitation of 540 nm and an emission of 600 nm. Data is analyzed using Prism software (Graphpad, San Diego, CA) to calculate IC50 values.

HCT-116 cells = test: HCT-116 cell proliferation assay (resazurin); type: cell-based; details: Homo sapiens
Protocol: HCT-116 cells (catalog #CCL-247) are obtained from the American Type Culture Collect (ATCC, Manassas, VA). Briefly, cells are grown in McCoy's 5A supplemented with 10% characterized fetal bovine serum (Invitrogen, Carlsbad, CA) and 1% Penicillin/Streptomycin/L-Glutamine at 37° C., 5% CO2, and 95% humidity. Cells are expanded until reaching 70-95% confluency at which point they are sub-cultured or harvested for assay use. A serial dilution of test compound is dispensed into a 384-well black clear bottom plate in triplicate. 375 cells are added per well in 50 μL complete growth medium in the 384-well plate. Plates are incubated for 67 to 72 h at 37° C., 5% CO2, and 95% humidity. At the end of the incubation, 40 μL of a […] solution of resazurin (Sigma, St. Louis, MO) in PBS is added to each well of the plate and plates are incubated for an additional 4 to 5 h at 37° C., 5% CO2, and 95% humidity. Plates are read on a Synergy2 or equivalent reader (Biotek, Winooski, VT) using an excitation of 540 nm and an emission of 600 nm. Data is analyzed using Prism software (Graphpad, San Diego, CA) to calculate IC50 values.

Porcine Brain Tubulin = target: T1, Porcine Brain Tubulin (Sus scrofa, UniProt P02550+P02554); test: Biochemical tubulin polymerization assay
T1 construct: Porcine Brain Tubulin (T240); purchased Cytoskeleton, Inc T240; BK011P; host or cells: porcine brain

B-Raf kinase = target: T2, B-Raf kinase (Homo sapiens, UniProt P15056); test: Biochemical assay for B-Raf (coupled pyruvate kinase/lactate dehydrogenase); details: Table 4; read-out: BRAF IC50
T2 construct: purchased Sigma

C-Raf kinase = target: T3, C-Raf kinase (Homo sapiens, UniProt P04049, Y340D/Y341D); test: Biochemical assay for C-Raf (coupled pyruvate kinase/lactate dehydrogenase); details: Table 4; read-out: CRAF IC50
T3 construct: C-Raf residues 306-end; Y340D, Y341D with N-; purchased Sigma

[2] = Table 5, read-out: Tubulin Biochem
[3] = HPAF-II, Table 4, read-out: HPAF-II IC50
[4] = HCT-116, Table 4, read-out: HCT-116 IC50
[5] = Table 4, read-out: Tubulin Biochem IC50

T3 sequence (P04049 307-648 Y340D/Y341D): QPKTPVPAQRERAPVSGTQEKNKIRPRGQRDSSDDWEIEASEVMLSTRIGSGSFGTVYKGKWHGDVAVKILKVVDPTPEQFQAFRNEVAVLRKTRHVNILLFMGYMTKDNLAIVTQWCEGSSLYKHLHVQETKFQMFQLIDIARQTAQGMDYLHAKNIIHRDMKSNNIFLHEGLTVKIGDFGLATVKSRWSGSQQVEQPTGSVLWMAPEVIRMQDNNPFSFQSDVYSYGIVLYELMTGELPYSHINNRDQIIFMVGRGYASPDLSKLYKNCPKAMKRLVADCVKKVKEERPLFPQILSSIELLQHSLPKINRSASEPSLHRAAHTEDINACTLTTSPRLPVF
T2 sequence (P15056 416-766): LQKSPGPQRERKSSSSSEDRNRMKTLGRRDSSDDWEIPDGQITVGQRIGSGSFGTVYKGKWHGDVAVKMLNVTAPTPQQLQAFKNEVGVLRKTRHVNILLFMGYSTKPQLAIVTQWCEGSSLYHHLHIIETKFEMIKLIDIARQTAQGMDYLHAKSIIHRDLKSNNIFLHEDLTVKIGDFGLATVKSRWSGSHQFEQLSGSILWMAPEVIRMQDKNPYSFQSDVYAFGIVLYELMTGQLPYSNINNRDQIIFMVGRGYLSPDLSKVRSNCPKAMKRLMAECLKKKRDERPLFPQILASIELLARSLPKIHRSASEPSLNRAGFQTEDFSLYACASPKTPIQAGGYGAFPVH
T1 sequence (P02550 whole entry): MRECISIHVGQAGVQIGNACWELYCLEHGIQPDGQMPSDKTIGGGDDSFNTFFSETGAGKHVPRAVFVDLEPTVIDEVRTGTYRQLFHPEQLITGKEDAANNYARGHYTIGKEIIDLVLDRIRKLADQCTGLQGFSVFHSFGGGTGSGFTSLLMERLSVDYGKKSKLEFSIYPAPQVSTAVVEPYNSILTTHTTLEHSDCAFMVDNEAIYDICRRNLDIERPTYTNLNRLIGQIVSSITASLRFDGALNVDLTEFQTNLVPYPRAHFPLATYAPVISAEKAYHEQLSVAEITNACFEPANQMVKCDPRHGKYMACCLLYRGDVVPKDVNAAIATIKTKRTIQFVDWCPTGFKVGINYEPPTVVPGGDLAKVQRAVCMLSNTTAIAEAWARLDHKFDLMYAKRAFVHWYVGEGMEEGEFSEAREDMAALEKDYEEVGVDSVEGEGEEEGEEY
T1 sequence (P02554 whole entry): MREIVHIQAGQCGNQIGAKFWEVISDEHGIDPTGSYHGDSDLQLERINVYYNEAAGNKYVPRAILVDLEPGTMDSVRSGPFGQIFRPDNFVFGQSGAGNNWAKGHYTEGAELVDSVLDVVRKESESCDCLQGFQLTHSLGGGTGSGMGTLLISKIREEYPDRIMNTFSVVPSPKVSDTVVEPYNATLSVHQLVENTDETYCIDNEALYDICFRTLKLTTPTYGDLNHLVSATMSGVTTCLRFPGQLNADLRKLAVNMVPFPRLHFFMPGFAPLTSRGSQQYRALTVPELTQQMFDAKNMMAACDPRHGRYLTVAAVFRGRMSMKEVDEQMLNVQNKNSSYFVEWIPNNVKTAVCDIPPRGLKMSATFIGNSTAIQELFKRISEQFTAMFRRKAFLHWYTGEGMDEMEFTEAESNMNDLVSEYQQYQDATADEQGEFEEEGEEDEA

Row | IC50 (B-Raf kinase) | IC50 (HCT-116 cells; [4]) | IC50 (Porcine Brain Tubulin; [5]) | IC50 (C-Raf kinase) | Compound | IC50 (HPAF-II cells; [3]) | other results
1 |  |  |  |  | C[C@@H](NC(=O)c1ncnc(N)c1Cl)c1ncc(C(=O)Nc2cc(C(F)(F)F)c(Cl)cn2)s1 [Tovorafenib, reference compound] |  | IC50 (HPAF-II cells; Table 5, read-out: HPAF-II): 1 to 10 µM; IC50 ([1]; Table 5, HCT-116 cells, read-out: Tubulin Cellular): 1 to 10 µM; IC50 (MiaPaca-2 cells; Table 5, read-out: MiaPaca-2): 1 to 10 µM; IC50 (HCT-116 cells; Table 5, read-out: HCT-116): 1 to 10 µM; IC50 (Porcine Brain Tubulin; [2]): > 100 µM
2 |  |  |  |  | CCCS(=O)(=O)Nc1ccc(F)c(C(=O)c2c[nH]c3ncc(-c4ccc(Cl)cc4)cc23)c1F [Vemurafenib, reference compound] |  | IC50 (HPAF-II cells; Table 5, read-out: HPAF-II): 1 to 10 µM; IC50 (MiaPaca-2 cells; Table 5, read-out: MiaPaca-2): 1 to 10 µM; IC50 (HCT-116 cells; Table 5, read-out: HCT-116): 1 to 10 µM; IC50 (Porcine Brain Tubulin; [2]): > 100 µM
3 |  |  |  |  | CC(C)(C)c1[nH]cnc1/C=c1\[nH]c(=O)/c(=C/c2ccccc2)[nH]c1=O [plinabulin, reference compound] |  | IC50 ([1]; ratio of pellet to supernatant vs DMSO control, HCT-116 cells, read-out: IC50 of inhibition of tubulin polymerization, cellular tubulin assay (FIG. 2)): 0.005 µM
4 | < 0.1 µM | 0.5 to 1 µM | > 100 µM | < 0.1 µM | CNC(=O)c1cc(-c2cc(-c3cc(NC(=O)c4ccnc(C(C)(C)F)c4)ccc3C)ccn2)ccn1 [reference compound] | 1 to 10 µM | IC50 ([1]; Table 4, HCT-116 cells, read-out: Tubulin Cellular IC50): 1 to 10 µM
5 | < 0.1 µM | 1 to 10 µM | > 100 µM | < 0.1 µM | CNC(=O)c1cc(-c2cc(-c3cc(NC(=O)c4cnnc(C(F)(F)F)c4)ccc3C)ccn2)ccn1 [reference compound] | 1 to 10 µM | IC50 (MiaPaca-2 cells; Table 4, read-out: MiaPaca-2 IC50): 1 to 10 µM
6 | < 0.1 µM | 1 to 10 µM | > 100 µM | < 0.1 µM | Cc1cc(-c2cc(NC(=O)c3ccnc(C(C)(C)F)c3)ccc2C)cc(-c2ccnc(C(N)=O)c2)n1 [reference compound] | 1 to 10 µM | 
7 |  | 0.5 to 1 µM | > 100 µM | < 0.1 µM | CNC(=O)c1cc(-c2cc(-c3cc(NC(=O)c4ccnc(C(C)(C)C#N)c4)c(F)cc3C)ccn2)ccn1 [reference compound] | 1 to 10 µM | 
